Patent US12624004B2 (Fudan University, priority 2019, dated 2026)
Read-outs that look alike come from different tables or passages of the source.

What was measured:
κ opioid receptor = target: T1, κ opioid receptor (Homo sapiens, UniProt P41145); experiment: Competition binding assay on membranes of CHO cells expressing κ opioid receptor, [3H]-labeled ligand
T1 construct: expressed in transfected cells; host or cells: CHO cells (membranes)
Outline: (§1)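 CHO membranes (20–30 μg protein) incubated with [3H]-labeled ligand at 1–2 nM and test compounds, 30 min at 30° C; nonspecific binding with 1 μM corresponding ligand. Filtered on GF/C, washed with 50 mM Tris-HCl pH 7.4, scintillation-counted. IC50 converted to Ki by Ki=IC50/(1+[L]/Kd).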

δ opioid receptor = target: T2, δ opioid receptor (Homo sapiens, UniProt P41143); experiment: Competition binding assay on membranes of CHO cells expressing δ opioid receptor, [3H]-labeled ligand
T2 construct: expressed in transfected cells; host or cells: CHO cells (membranes)
Outline: as §1

μ opioid receptor = target: T3, μ opioid receptor (Homo sapiens, UniProt P35372); experiment: Competition binding assay on membranes of CHO cells expressing μ opioid receptor, [3H]-labeled ligand
T3 construct: expressed in transfected cells; host or cells: CHO cells (membranes)
Outline: as §1

[1] = Table 3-1, 1 μM concentration of compounds
[2] = Table 4-1, 1 μM concentration of compound

Structure (SMILES): COc1cccc(C2(O)CCCCC2CN(C)C)c1 (stereo not drawn) [Tramadol, reference compound]
- inhibition at 10 µM (κ opioid receptor; 0.5 h, Table 1-1, 10 μM concentration of compound, read-out: κOR Binding rate (%)): 0%
- inhibition at 1 µM (κ opioid receptor; 0.5 h, Table 2-1, 1 μM concentration of compound, read-out: κOR Binding rate (%)): 0%
- inhibition at 1 µM (κ opioid receptor; 0.5 h, Table 5-1, 1 μM concentration of compound, read-out: κOR Combination rate (%)): 0%
- κOR Binding rate (%) (κ opioid receptor; [1]): 0%
- κOR Binding rate (%) (κ opioid receptor; [2]): 0%
- inhibition at 10 µM (δ opioid receptor; 0.5 h, Table 1-1, 10 μM concentration of compound, read-out: δOR Binding rate (%)): 0%
- inhibition at 1 µM (δ opioid receptor; 0.5 h, Table 2-1, 1 μM concentration of compound, read-out: δOR Binding rate (%)): 0%
- inhibition at 1 µM (δ opioid receptor; 0.5 h, Table 5-1, 1 μM concentration of compound, read-out: δOR Combination rate (%)): 0%
- δOR Binding rate (%) (δ opioid receptor; [1]): 0%
- δOR Binding rate (%) (δ opioid receptor; [2]): 0%
- inhibition at 1 µM (μ opioid receptor; 0.5 h, Table 5-1, 1 μM concentration of compound, read-out: μOR Combination rate (%)): 6 ± 0.4%
- inhibition at 10 µM (μ opioid receptor; Table 1-1, 10 μM concentration of compound, mean ± SD of three measurements, read-out: μOR Binding rate (%)): 6 ± 0.4%
- inhibition at 1 µM (μ opioid receptor; Table 2-1, 1 μM concentration of compound, read-out: μOR Binding rate (%)): 6 ± 0.4%
- μOR Binding rate (%) (μ opioid receptor; [1]): 6.0%
- μOR Binding rate (%) (μ opioid receptor; [2]): 6.0 ± 0.4%
